Reference: ChEMBL document CHEMBL4431301, “The Medicinal Chemistry of Dengue Virus” (J Med Chem, 2016)
Where a SMILES comes first, the peptide text is derived from it.

Tests used:
[1] = tested on: dengue virus type 3; experiment: Antiviral activity against Dengue virus 3 infected in monkey LLC-MK2 cells assessed as reduction in viral infection at 2 to 5 uM by focus forming unit assay; assay type: functional; parameters: scale not given: the % may be the effect or the level left
[2] = tested on: dengue virus type 4; experiment: Antiviral activity against Dengue virus 4 infected in monkey LLC-MK2 cells assessed as reduction in viral infection at 2 to 5 uM by focus forming unit assay; assay type: functional; parameters: scale not given: the % may be the effect or the level left
[3] = tested on: dengue virus type 1; experiment: Antiviral activity against Dengue virus 1 infected in monkey LLC-MK2 cells assessed as reduction in viral infection at 2 to 5 uM by focus forming unit assay; assay type: functional; parameters: scale not given: the % may be the effect or the level left
[4] = tested on: dengue virus type 2; experiment: Antiviral activity against Dengue virus 2 infected in monkey LLC-MK2 cells assessed as reduction in viral infection at 2 to 5 uM by focus forming unit assay; assay type: functional; parameters: scale not given: the % may be the effect or the level left
[5] = target: T1, Genome polyprotein (dengue virus type 2, UniProt P29990); experiment: Inhibition of Dengue virus 2 Taiwanese PL046 NS2B-NS3 protease using Ac-TTSTRR-pNA as substrate preincubated for 10 mins followed by addition of substrate measured after 2 hrs
[6] = target: T1, Genome polyprotein; experiment: Inhibition of Dengue virus 2 GFP/DsRed fused NS2B-NS3 protease co-transfected in HEK293T cells by Western blot analysis; assay type: cell-based
[7] = tested on: dengue virus type 2; experiment: Antiviral activity against Dengue virus 2 infected in african green monkey Vero cells preincubated with cells followed by viral infection measured after 4 days by immunofluorescence staining based fluorescence microscope; assay type: functional, organism-based
[8] = target: T1, Genome polyprotein; experiment: Inhibition of Dengue virus 2 NS2B-NS3 protease expressed in Escherichia coli BL21(DE3) using Boc-Gly-Arg-Arg-7-amino-4-methylcoumarin as substrate after 10 mins by fluorescence assay
[9] = tested on: dengue virus type 2; experiment: Antiviral activity against Dengue virus 2 infected in human HuH7 cells after 48 hrs by CFI assay; assay type: functional, organism-based; details: Huh-7, 48 h
[10] = Cytotoxicity against BHK21 cells assessed as cell viability after 48 hrs by Celltiter-Glo luminescent assay; assay type: cell-based, Mesocricetus auratus, BHK-21; details: hamster
[11] = Cytotoxicity against human HuH7 cells assessed as cell viability after 48 hrs by Celltiter-Glo luminescent assay; assay type: cell-based, Huh-7
[12] = target: Genome polyprotein (dengue virus type 2) (UniProt P29990); experiment: Inhibition of the Dengue virus 2 NS2B-NS3 protease using Bz-nKRR-AMC as substrate at 300 uM preincubated for 15 mins followed by substrate addition measured after 30 mins by fluorescence assay
[13] = target: T1, Genome polyprotein; experiment: Inhibition of the Dengue virus 2 NS2B-NS3 protease expressed in Escherichia coli BL21(DE3)-RIPL cells using Pyr-RTKR-AMC as substrate preincubated for 30 mins followed by addition of substrate
[14] = Cytotoxicity against BHK21 cells assessed as cell viability after 24 hrs by ATP-Lite assay; assay type: cell-based, Mesocricetus auratus, BHK-21; details: hamster
[15] = tested on: dengue virus type 2; experiment: Antiviral activity against Dengue virus 2 NGC infected in BHK21 cells assessed as reduction in virus replication after 24 hrs by renilla luciferase reporter gene assay; assay type: functional, organism-based; details: BHK-21, 24 h
[16] = Inhibition of envelope protein mediated membrane fusion in Dengue virus TSV01 infected in mosquito C6/36 cells after 1 hr by propidium iodide staining based fluorescence assay; assay type: cell-based; details: TSV01, C6/36, 1 h
[17] = tested on: dengue virus type 2; experiment: Antiviral activity against Dengue virus 2 NGC infected in BHK21 cells assessed as reduction in viral titer after 3 days by RT-PCR method; assay type: functional, organism-based; details: BHK-21, 72 h
[18] = Inhibition of envelope protein mediated membrane fusion in Dengue virus TSV01 infected in mosquito C6/36 cells assessed as trypsin degradation after 1 hr by SDS-PAGE method; assay type: cell-based; details: TSV01, C6/36, 1 h
[19] = Cytotoxicity against BHK21 cells assessed as cell viability after 3 days by CellTiter Glo assay; assay type: cell-based, Mesocricetus auratus, BHK-21; details: hamster
[20] = target: T1, Genome polyprotein; experiment: Inhibition of Dengue virus 2 NS2B-NS3 protease expressed in Escherichia coli using Abz-RRRRSAG-nY-NH2 as substrate preincubated for 20 mins followed by addition of substrate measured after 60 mins by fluorescence assay
[21] = target: T1, Genome polyprotein; experiment: Inhibition of Dengue virus 1 NS2B-NS3 protease expressed in Escherichia coli using Abz-RRRRSAG-nY-NH2 as substrate preincubated for 20 mins followed by addition of substrate measured after 60 mins by fluorescence assay; parameters: species or system dengue virus type 1
[22] = target: T1, Genome polyprotein; experiment: Inhibition of Dengue virus 3 NS2B-NS3 protease expressed in Escherichia coli using Abz-RRRRSAG-nY-NH2 as substrate preincubated for 20 mins followed by addition of substrate measured after 60 mins by fluorescence assay; parameters: species or system dengue virus type 3
[23] = target: DEN4V NS2B-G4SG4NS3 serine protease (Dengue virus type 4, UniProt P09866); experiment: Inhibition of Dengue virus 4 NS2B-NS3 protease expressed in Escherichia coli using Abz-RRRRSAG-nY-NH2 as substrate preincubated for 20 mins followed by addition of substrate measured after 60 mins by fluorescence assay

CC[C@H](C)[C@H](NC(=O)[C@H](C)NC(=O)CNC(=O)[C@H](Cc1ccccc1)NC(=O)[C@@H](NC(=O)[C@H](CCC(N)=O)NC(=O)[C@H](Cc1cnc[nH]1)NC(=O)[C@H](CC(C)C)NC(=O)[C@H](C)NC(=O)[C@H](CCCCN)NC(=O)CNC(=O)[C@@H](NC(=O)[C@H](CO)NC(=O)[C@@H](NC(=O)[C@H](Cc1ccccc1)NC(=O)[C@@H](NC(=O)CNC(=O)CNC(=O)[C@H](CC(C)C)NC(=O)[C@H](CO)NC(=O)CNC(=O)[C@H](Cc1ccccc1)NC(=O)[C@H](CC(=O)O)NC(=O)[C@H](Cc1c[nH]c2ccccc12)NC(=O)[C@H](C)NC(=O)[C@@H](NC(=O)[C@H](CC(=O)O)NC(=O)CNC(=O)[C@H](CC(C)C)NC(=O)[C@@H](NC(=O)[C@H](C)NC(=O)[C@@H](N)CCSC)[C@@H](C)CC)[C@@H](C)O)C(C)C)[C@@H](C)O)[C@@H](C)CC)C(C)C)C(=O)N[C@@H](Cc1ccc(O)cc1)C(=O)O (H-MAILGDTAWDFGSLGGVFTSIGKALHQVFGAIY-OH)
Activity [1]: 50% | Activity [2]: 50% | Activity [3]: 50% | Activity [4]: 50%

CCCCCCCCCCCCCCCC[N+](CC)(CO)CO
IC50 [5]: 22.6 µM

O=C(Nc1nc2cc(O)c(O)cc2s1)c1ccccc1Oc1ccc2cc(O)ccc2c1
IC50 [6]: 3.2 µM | EC50 [7]: 0.8 µM | IC50 [8]: 4.2 µM

Cc1cc(N2CCN(C)CC2)ccc1NC(=O)c1c2c(nc3ccccc13)CCN(Cc1ccccc1)C2
EC50 [9]: 5 µM | CC50 at 48 h [10]: > 300 µM | CC50 at 48 h [11]: 55 µM | inhibition [12]: 85%

Nc1cc(N)c(/N=N/c2ccc(S(=O)(=O)Nc3nccs3)cc2)cc1/N=N/c1ccc(S(=O)(=O)Nc2nccs2)cc1
IC50 [13]: 2.75 µM | CC50 at 24 h [14]: 213 µM | EC50 [15]: 39.9 µM

O=C(O)c1cc(=O)c2ccc(S[C@@H](/C=C/C=C\CCOc3ccc(Cl)c(Cl)c3)[C@H](O)c3cccc(C(F)(F)F)c3)cc2o1
IC50 [16]: 6.8 µM | EC50 [17]: 9.8 µM | IC50 [18]: 6.8 µM | CC50 at 72 h [19]: 48.7 µM

NC(=O)[C@H](Cc1c[nH]c2ccccc12)NC(=O)[C@H](CS)NC(=O)[C@H](Cc1ccc(O)cc1)NC(=O)[C@@H](N)Cc1c[nH]c2ccccc12 (H-WYCW-NH2)
Ki [20]: 4.8 µM | Ki [21]: 4.2 µM | Ki [22]: 24.4 µM | Ki [23]: 11.2 µM
